Measured values taken from patent US20030225081A1, “Pyridazinones and triazinones and medicinal use thereof” (priority 2000, published 2003).

Test system: AMPA receptor
Test: Suppressing action to calcium influx into nerve cells induced by AMPA
Type: cell-based
Details: Fura2-AM, stimulation with 2 μM AMPA, primary culture of rat embryo cerebral cortex nerve cells, 1 μM MK-801
From the text: Suppressing Action to Calcium Influx into Nerve Cells Induced by AMPA
The suppressing action of the compounds of the present invention to calcium influx into nerve cells induced by AMPA was investigated using the primary culture system of nerve cells of cerebral cortex of embryo of rat.
Cerebral cortex was cut out from the brain of rat of gestational 18 days and treated with trypsin and DNase to disperse the cells. The cells were flown by MEM containing 10% of serum, sown in a culture bottle and astrocytes were proliferated. The astrocytes were re-dispersed by trypsin and sown in a 96-well plate. After incubation for one week, it was confirmed that the astrocytes covered all over the bottom and then the nerve cells of cerebral cortex which was dispersed by the above method were sown thereupon. After incubation for 24 hours, the medium was changed, the incubation was carried out for one week and, after that, the medium was changed to that containing 1 μM of MK-801. Nerve cells which were incubated for not shorter than 8 to 10 days were used.
Calcium influx into the cells was measured using Fura2-AM which was a calcium-sensitive fluorescent dye. It was treated in a medium containing Fura2-AM for 1 hour, incorporated into the cells, exchanged to a Tyrode solution containing 1 μM MK-801 and stimulation was carried out using 2 μM AMPA. Change in the amount of calcium flown into the cells were measured as the change in the fluorescent intensity at the exciting wave length of 340/380 nm. […] As the control compound, GYKI52466 (Le Peillet, et al., Brain Res., 571, 115, 1992) was used.

| SMILES | IC50 [nM] |
| --- | --- |
| COc1cccc(C2CC(c3ccccn3)=NN(c3ccccc3Br)C2=O)c1 (stereo not shown) [Example 1, 2-(2-Bromophenyl)-4-(3-methoxyphenyl)-6-(2-pyridyl)-4,5-dihydro-3 (2H)-pyridazinone] | 100 |
| O=C1C(c2cccc(O)c2)CC(c2ccccn2)=NN1c1ccccc1Br (stereo not shown) [Example 2, 2-(2-Bromophenyl)-4-(3-hydroxyphenyl)-6-(2-pyridyl)-4,5-dihydro-3 (2H)-pyridazinone] | 100 |
| O=c1c(-c2cccc(OCCO)c2)cc(-c2ccccn2)nn1-c1ccccc1Br [Example 3, 2-(2-Bromophenyl)-4-[3-(2-hydroxyethoxy)phenyl]-6-(2-pyridyl)-3 (2H)-pyridazinone] | 200 |
| N#Cc1ccccc1-n1nc(-c2ccccn2)cc(-c2cccc(OCCO)c2)c1=O [Example 4, 2-(2-Cyanophenyl)-4-[3-(2-hydroxyethoxy)phenyl]-6-(2-pyridyl)-3 (2H)-pyridazinone] | 60 |
| COc1ccccc1-c1cc(-c2ccccn2)c(=O)n(-c2ccccc2Br)n1 [Example 5, 2-(2-Bromophenyl)-6-(2-methoxyphenyl)-4-(2-pyridyl)-3 (2H)-pyridazinone] | 6700 |
| N#Cc1ccccc1N1N=C2c3ccccc3OCC2C(c2ccccc2)C1=O (stereo not shown) [Example 6, 2-(2-Cyanophenyl)-4-phenyl-2,3,4,4a-tetrahydro-5H-(1)benzopyrano[4,3-c]pyridazin-3-one] | 100 |
| N#Cc1ccccc1-n1nc2c(c(-c3ccccc3)c1=O)COc1ccccc1-2 [Example 7, 2-(2-Cyanophenyl)-4-phenyl-2,3-dihydro-5H-(1)benzopyrano[4,3-c]pyridazin-3-one] | 200 |
| O=C1C(c2cccnc2)C2COc3ccccc3C2=NN1c1ccccc1I (stereo not shown) [Example 8, 2-(2-Iodophenyl)-4-(3-pyridyl)-2,3,4,4a-tetrahydro-5H-(1)benzopyrano[4,3-c]pyridazin-3-one] | 100 |
| O=C1C(C(O)c2ccccn2)CC(c2ccccc2)=NN1c1ccccc1 (stereo not shown) [Example 11, 2,6-Diphenyl-4-(a-hydroxy-2-picolyl)-4,5-dihydro-3 (2H)-pyridazinone] | 9900 |
| N#Cc1ccccc1-n1nc(-c2ccccc2)cc(C(=O)NCCN2CCOCC2)c1=O [Example 12, 2-(2-Cyanophenyl)-4-(4-morpholinoethylaminocarbonyl)-6-phenyl-3 (2H)-pyridazinone] | 3900 |
| COc1ccccc1C1CC(c2ccccn2)=NN(c2ccccc2Br)C1=O (stereo not shown) [Example 14, 2-(2-Bromophenyl)-4-(2-methoxyphenyl)-6-(2-pyridyl)-4,5-dihydro-3 (2H)-pyridazinone] | 200 |
| COc1ccc(C2CC(c3ccccn3)=NN(c3ccccc3Br)C2=O)cc1 (stereo not shown) [Example 15, 2-(2-Bromophenyl)-4-(4-methoxyphenyl)-6-(2-pyridyl)-4,5-dihydro-3 (2H)-pyridazinone] | 200 |
| COc1ccc(Br)cc1C1CC(c2ccccn2)=NN(c2ccccc2Br)C1=O (stereo not shown) [Example 16, 2-(2-Bromophenyl)-4-(3-bromo-6-methoxyphenyl)-6-(2-pyridyl)-4,5-dihydro-3 (2H)-pyridazinone] | 700 |
| COc1ccccc1C1CC(c2ccccn2)=NN(c2ccccc2I)C1=O (stereo not shown) [Example 17, 2-(2-Iodophenyl)-4-(2-methoxyphenyl)-6-(2-pyridyl)-4,5-dihydro-3 (2H)-pyridazinone] | 200 |
| COc1ccccc1C1CC(c2ccccn2)=NN(c2ccccc2)C1=O (stereo not shown) [Example 18, 4-(2-Methoxyphenyl)-2-phenyl-6-(2-pyridyl)-4,5-dihydro-3 (2H)-pyridazinone] | 100 |
| O=C1C(c2ccccc2)CC(c2ccccn2)=NN1c1ccccc1Br (stereo not shown) [Example 19, 2-(2-Bromophenyl)-4-phenyl-6-(2-pyridyl)-4,5-dihydro-3 (2H)-pyridazinone] | 60 |
| O=C1C(c2ccccc2)CC(c2cccnc2)=NN1c1ccccc1Br (stereo not shown) [Example 20, 2-(2-Bromophenyl)-4-phenyl-6-(3-pyridyl)-4,5-dihydro-3 (2H)-pyridazinone] | 100 |
| O=C1C(c2ccccc2)CC(c2ccccc2)=NN1c1ccccn1 (stereo not shown) [Example 21, 4,6-Diphenyl-2-(2-pyridyl)-4,5-dihydro-3 (2H)-pyridazinone] | 500 |
| COc1ccccc1C1CC(c2ccccn2)=NN(c2ccccn2)C1=O (stereo not shown) [Example 22, 4-(2-Methoxyphenyl)-2-(2-pyridyl)-6-(2-pyridyl)-4,5-dihydro-3 (2H)-pyridazinone] | 2700 |
| N#Cc1ccccc1-c1cc(-c2ccccn2)nn(-c2ccccc2)c1=O [Example 23, 4-(2-Cyanophenyl)-2-phenyl-6-(2-pyridyl)-3 (2H)-pyridazinone] | 100 |

| SMILES | IC50 [nM] |
| --- | --- |
| COc1ccccc1C1CC(c2cccnc2)=NN(c2ccccc2Br)C1=O (stereo not shown) [Example 24, 2-(2-Bromophenyl)-4-(2-methoxyphenyl)-6-(3-pyridyl)-4,5-dihydro-3 (2H)-pyridazinone] | 60 |
| O=C1C(c2ccccc2Br)CC(c2ccccn2)=NN1c1ccccc1 (stereo not shown) [Example 25, 4-(2-Bromophenyl)-2-phenyl-6-(2-pyridyl)-4,5-dihydro-3 (2H)-pyridazinone] | 200 |
| COc1ccccc1N1N=C(c2ccccn2)CC(c2ccccc2)C1=O (stereo not shown) [Example 26, 2-(2-Methoxyphenyl)-4-phenyl-6-(2-pyridyl)-4,5-dihydro-3 (2H)-pyridazinone] | 300 |
| O=C1C(c2ccccc2)CC(c2ccccn2)=NN1c1ccccc1[N+](=O)[O-] (stereo not shown) [Example 27, 4-Phenyl-2-(2-nitrophenyl)-6-(2-pyridyl)-4,5-dihydro-3 (2H)-pyridazinone] | 40 |
| O=C1C(c2ccccc2)CC(c2ccccn2)=NN1c1ccccc1F (stereo not shown) [Example 28, 2-(2-Fluorophenyl)-4-phenyl-6-(2-pyridyl)-4,5-dihydro-3 (2H)-pyridazinone] | 100 |
| O=C1C(c2ccc(O)cc2)CC(c2ccccn2)=NN1c1ccccc1Br (stereo not shown) [Example 30, 2-(2-Bromophenyl)-4-(4-hydroxyphenyl)-6-(2-pyridyl)-4,5-dihydro-3 (2H)-pyridazinone] | 200 |
| O=c1c(-c2ccccn2)cc(-c2ccccc2O)nn1-c1ccccc1Br [Example 31, 2-(2-Bromophenyl)-6-(2-hydroxyphenyl)-4-(2-pyridyl)-3 (2H)-pyridazinone] | 900 |
| O=c1c(-c2ccccc2O)cc(-c2ccccn2)nn1-c1ccccc1 [Example 32, 4-(2-Hydroxyphenyl)-2-phenyl-6-(2-pyridyl)-3 (2H)-pyridazinone] | 100 |
| O=C1C(c2ccccc2O)CC(c2ccccn2)=NN1c1ccccc1 (stereo not shown) [Example 33, 4-(2-Hydroxyphenyl)-2-phenyl-6-(2-pyridyl)-4,5-dihydro-3 (2H)-pyridazinone] | 70 |
| O=C1C(c2ccccc2O)CC(c2cccnc2)=NN1c1ccccc1Br (stereo not shown) [Example 34, 2-(2-Bromophenyl)-4-(2-hydroxyphenyl)-6-(3-pyridyl)-4,5-dihydro-3 (2H)-pyridazinone] | 300 |
| O=c1c(-c2cccc(OCc3ccccn3)c2)cc(-c2ccccn2)nn1-c1ccccc1Br [Example 37, 2-(2-Bromophenyl)-4-[3-(2-picolyloxyphenyl)]-6-(2-pyridyl)-3 (2H)-pyridazinone] | 100 |
| O=C1C(c2ccccc2OS(=O)(=O)C(F)(F)F)CC(c2ccccn2)=NN1c1ccccc1 (stereo not shown) [Example 38, 2-Phenyl-6-(2-pyridyl)-4-(2-trifluoromethylsulfonyloxyphenyl)-4,5-dihydro-3 (2H)-pyridazinone] | 400 |
| COc1ccccc1C1CC(c2ccccn2)=NN(c2ccccc2C#N)C1=O (stereo not shown) [Example 39, 2-(2-Cyanophenyl)-4-(2-methoxyphenyl)-6-(2-pyridyl)-4,5-dihydro-3 (2H)-pyridazinone] | 50 |
| COc1ccccc1-c1cc(-c2ccccn2)nn(-c2ccccc2C#N)c1=O [Example 40, 2-(2-Cyanophenyl)-4-(2-methoxyphenyl)-6-(2-pyridyl)-3 (2H)-pyridazinone] | 100 |
| N#Cc1ccccc1N1N=C(c2ccccn2)CC(c2ccccc2O)C1=O (stereo not shown) [Example 41, 2-(2-Cyanophenyl)-4-(2-hydroxyphenyl)-6-(2-pyridyl)-4,5-dihydro-3 (2H)-pyridazinone] | 30 |
| N#Cc1ccccc1-n1nc(-c2ccccn2)cc(-c2ccccc2O)c1=O [Example 42, 2-(2-Cyanophenyl)-4-(2-hydroxyphenyl)-6-(2-pyridyl)-3 (2H)-pyridazinone] | 100 |
| N#Cc1ccccc1-n1nc(-c2ccccn2)cc(-c2ccccc2)c1=O [Example 43, 2-(2-Cyanophenyl)-4-phenyl-6-(2-pyridyl)-3 (2H)-pyridazinone] | 100 |
| COc1ccc(Br)cc1-c1cc(-c2ccccn2)nn(-c2ccccc2C#N)c1=O [Example 44, 2-(2-Cyanophenyl)-4-(3-bromo-6-methoxyphenyl)-6-(2-pyridyl)-3 (2H)-pyridazinone] | 200 |
| N#Cc1ccccc1-c1cc(-c2ccccn2)nn(-c2ccccc2C#N)c1=O [Example 46, 2-(2-Cyanophenyl)-4-(2-cyanophenyl)-6-(2-pyridyl)-3 (2H)-pyridazinone] | 300 |
| N#Cc1ccccc1-n1nc(-c2ccccn2)cc(-c2ccccc2Br)c1=O [Example 47, 4-(2-Bromophenyl)-2-(2-cyanophenyl)-6-(2-pyridyl)-3 (2H)-pyridazinone] | 200 |
